The numbers were not newly measured in patent publication US20190321427A1, “Compositions to Treat Anal Fissures” (G&S Laboratories, Inc., priority 2018, published 2019), which cites them from elsewhere.

The test system of the data set is anal fissures.

Where two headings read alike, the source gives them in different places.

On to botulinum toxin, for which the healing rates (in vivo) is reported as 30-96%. Consider `O=[N+]([O-])OCC(CO[N+](=O)[O-])O[N+](=O)[O-]` [nitroglycerin], for which the healing rates (anal fissure, literature (Poh, 2010)) is recorded as 40-70%. For the same compound, the common side effect entry (topical treatment of anal fissure) was “headache”.
